# The supplement of paper PMC9663587
# Legend:
# Assay in all cases: area over the GR curve, 72 h; higher = more effect;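 note: Dye Drop or Deep Dye Drop imaging of viable cells in 384-well plates (Hoechst nuclei, LIVE/DEAD dye), nine half-log doses, GR normalized to DMSO controls and time-zero plates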
# AU565 = test system: AU565
# EFM19 = test system: EFM19
# HCC1395 = test system: HCC1395
# HCC1569 = test system: HCC1569
# HTERT_HME1 = test system: HTERT_HME1
# MCF7 = test system: MCF7
# MDAMB468 = test system: MDAMB468
# PDX1258 = test system: PDX1258
# PDXHCI002 = test system: PDXHCI002
# SUM229PE = test system: SUM229PE
# SUM52PE = test system: SUM52PE
# UACC812 = test system: UACC812
# ZR7530 = test system: ZR7530
SMILES,area over the GR curve (AU565) [GR],area over the GR curve (EFM19) [GR],area over the GR curve (HCC1395) [GR],area over the GR curve (HCC1569) [GR],area over the GR curve (HTERT_HME1) [GR],area over the GR curve (MCF7) [GR],area over the GR curve (MDAMB468) [GR],area over the GR curve (PDX1258) [GR],area over the GR curve (PDXHCI002) [GR],area over the GR curve (SUM229PE) [GR],area over the GR curve (SUM52PE) [GR],area over the GR curve (UACC812) [GR],area over the GR curve (ZR7530) [GR],area over the GR curve (HCC1395; main component drawn) [GR],area over the GR curve (HTERT_HME1; main component drawn) [GR],area over the GR curve (MCF7; main component drawn) [GR],area over the GR curve (MDAMB468; main component drawn) [GR],area over the GR curve (PDX1258; main component drawn) [GR],area over the GR curve (PDXHCI002; main component drawn) [GR]
COc1ccc2c(c1)[C@]1(C[C@H]1c1ccc3c(/C=C/c4ccc(CN5C[C@@H](C)O[C@@H](C)C5)cc4)n[nH]c3c1)C(=O)N2,0.725,0.397,0.709,0.435,0.734,0.906,0.838,0.676,0.489,0.675,0.516,0.524,0.509,,,,,,
COc1cccc(OCCCN)c1-c1cc(Nc2cnc(C#N)cn2)n[nH]1,0.5,0.041,0.832,0.355,0.596,0.794,0.227,0.868,0.045,0.342,0.425,0.0047,0.0681,,,,,,
CC(=O)Nc1cccc(-n2c(=O)n(C3CC3)c(=O)c3c(Nc4ccc(I)cc4F)n(C)c(=O)c(C)c32)c1 (max 1 µM),-0.0244,-0.1,0.185,0.135,0.434,0.277,0.213,0.0351,0.2,0.472,0.224,0.686,0.219,,,,,,
CCc1cnn2c(NCc3ccc[n+]([O-])c3)cc(N3CCCC[C@H]3CCO)nc12 (max 1 µM),0.857,0.459,0.644,0.541,0.552,0.644,0.568,0.685,0.584,0.532,0.491,0.151,0.713,,,,,,
CC(=O)c1c(C)c2cnc(Nc3ccc(N4CCNCC4)cn3)nc2n(C2CCCC2)c1=O (max 3.162 µM),0.296,0.179,0.274,0.0095,0.259,0.346,-0.0231,-0.0777,0.273,0.223,0.201,0.609,0.284,,,,,,
CCc1cncnc1N1CCN(Cc2nc3ccc(C(F)(F)F)cc3[nH]2)CC1 (max 10 µM),0.0402,-0.0563,0.0037,0.0337,0.117,0.0548,0.118,-0.0033,-0.045,0.0479,0.0787,0.275,0.0942,,,,,,
CCCCOc1c(C(=O)c2c(F)cc(C)cc2F)c[nH]c2nncc1-2 (max 10 µM),0.514,0.497,0.807,0.657,0.862,0.697,0.516,1.05,0.108,0.662,0.464,0.886,0.481,,,,,,
CCN1CCN(Cc2ccc(Nc3ncc(F)c(-c4cc(F)c5nc(C)n(C(C)C)c5c4)n3)nc2)CC1 (max 10 µM),0.657,0.478,0.562,0.132,0.428,0.702,0.176,0.329,0.764,0.383,0.341,1.04,0.546,,,,,,
CNc1nc(-c2ccc3c(N)n[nH]c3c2)cc(N2C[C@@H](C(=O)NC3CCCCC3)CC[C@H]2C)n1 (max 10 µM),0.223,0.293,0.187,0.114,0.128,0.256,0.0821,0.011,-0.0573,0.0671,0.124,0.367,0.408,,,,,,
CO[C@@H](C)Cn1c(=O)n(C)c2cnc3ccc(-c4cncc(C(C)(C)O)c4)cc3c21 (max 10 µM),0.793,0.813,0.618,0.768,0.676,0.834,0.669,0.557,0.228,0.409,0.75,1.03,0.726,,,,,,
Cc1nn(C)c(COc2ccc(N3CCN(S(=O)(=O)N(C)C)CC3)cc2)c1-c1cccc2c(CCCOc3cccc4ccccc34)c(C(=O)O)n(CCN3CCOCC3)c12 (max 10 µM),-0.0201,-0.0581,-0.0037,-0.0353,0.339,-0.0002,0.0206,-0.0034,-0.05,0.0397,0.0586,0.0654,0.0093,,,,,,
CN(C)CC[C@H](CSc1ccccc1)Nc1ccc(S(=O)(=O)NC(=O)c2ccc(N3CCN(Cc4ccccc4-c4ccc(Cl)cc4)CC3)cc2)cc1[N+](=O)[O-] [ABT-737] (max 10 µM),0.0543,0.111,-0.0157,0.318,0.081,0.0119,0.086,-0.0015,0.0548,0.0913,0.0757,0.276,-0.0351,,,,,,
C=CCn1c(=O)c2cnc(Nc3ccc(N4CCN(C)CC4)cc3)nc2n1-c1cccc(C(C)(C)O)n1 [AZD1775] (max 10 µM),0.496,0.23,0.886,0.825,0.441,0.692,0.47,0.73,0.483,0.756,0.158,0.34,0.322,,,,,,
CNC(=O)c1cccc(-c2ccc3c(N4CCOC[C@@H]4C)nc(N4CCOC[C@@H]4C)nc3n2)c1 [AZD2014] (max 10 µM),0.757,0.829,0.582,0.625,0.601,0.854,0.401,0.41,0.0467,0.484,0.682,1.13,0.749,,,,,,
NC1(C(=O)N[C@@H](CCO)c2ccc(Cl)cc2)CCN(c2nc[nH]c3nccc2-3)CC1 [AZD5363] (max 10 µM),0.205,0.304,0.5,0.433,0.188,0.212,0.135,0.153,-0.085,0.234,0.196,0.2,0.393,,,,,,
C[C@@H]1COCCN1c1cc(C2([S@](C)(=N)=O)CC2)nc(-c2cc[nH]c3nccc2-3)n1 [AZD6738] (max 10 µM),0.0383,0.0109,0.194,0.053,-0.0027,0.179,0.0381,0.0598,0.0278,0.0968,0.0121,-0.0578,-0.0333,,,,,,

SMILES,area over the GR curve (AU565) [GR],area over the GR curve (EFM19) [GR],area over the GR curve (HCC1395) [GR],area over the GR curve (HCC1569) [GR],area over the GR curve (HTERT_HME1) [GR],area over the GR curve (MCF7) [GR],area over the GR curve (MDAMB468) [GR],area over the GR curve (PDX1258) [GR],area over the GR curve (PDXHCI002) [GR],area over the GR curve (SUM229PE) [GR],area over the GR curve (SUM52PE) [GR],area over the GR curve (UACC812) [GR],area over the GR curve (ZR7530) [GR],area over the GR curve (HCC1395; main component drawn) [GR],area over the GR curve (HTERT_HME1; main component drawn) [GR],area over the GR curve (MCF7; main component drawn) [GR],area over the GR curve (MDAMB468; main component drawn) [GR],area over the GR curve (PDX1258; main component drawn) [GR],area over the GR curve (PDXHCI002; main component drawn) [GR]
NC(=O)Nc1cc(-c2cccc(F)c2)sc1C(=O)N[C@H]1CCCNC1 [AZD7762] (max 10 µM),0.338,0.222,0.857,0.772,0.435,0.597,0.487,0.909,0.694,0.588,0.634,1.02,0.199,,,,,,
Cc1nc(NC(=O)N2CCC[C@H]2C(N)=O)sc1-c1ccnc(C(C)(C)C(F)(F)F)c1 [Alpelisib/BYL719] (max 10 µM),0.472,0.445,0.023,0.0913,0.112,0.326,0.0301,0.0534,0.063,0.128,0.19,0.381,0.351,,,,,,
CN(C)C/C=C/C(=O)Nc1ccc(O[C@@H]2CCC[C@@H](Nc3ncc(Cl)c(-c4c[nH]c5ccccc45)n3)C2)cc1 [BSJ-01-175] (max 10 µM),1.06,0.3,1.01,0.907,0.955,1.19,0.892,1.3,0.906,0.745,0.618,0.571,0.989,,,,,,
CC(=O)c1c(C)c2cnc(Nc3ccc(N4CCN(CCOCCOCCOCCNC(=O)COc5cccc6c5C(=O)N(C5CCC(=O)NC5=O)C6=O)CC4)cn3)nc2n(C2CCCC2)c1=O (configuration not stated) [BSJ-03-123] (max 10 µM),0.34,0.318,0.323,0.183,0.422,0.306,0.265,0.0283,0.246,0.286,0.219,0.367,0.387,,,,,,
CC(C)Nc1cc(-c2c[nH]c(C(=O)N[C@H](CO)c3cccc(Cl)c3)c2)c(Cl)cn1 [BVD523] (max 10 µM),0.061,0.0226,0.259,-0.026,0.443,0.192,0.267,0.149,0.168,0.279,0.129,0.305,0.08,,,,,,
Cc1c(N)nc([C@H](CC(N)=O)NC[C@H](N)C(N)=O)nc1C(=O)N[C@H](C(=O)N[C@H](C)[C@@H](O)[C@H](C)C(=O)N[C@H](C(=O)NCCc1nc(-c2nc(C(=O)NCCC[S+](C)C)cs2)cs1)[C@@H](C)O)[C@@H](OC1OC(CO)C(O)C(O)C1OC1OC(CO)C(O)C(OC(N)=O)C1O)c1cnc[nH]1 (some centres not stated) [Bleomycin] (max 10 µM),,,,,,,,,,,,,,0.607,0.48,0.555,0.325,0.295,0.272
Nc1cc(C(F)(F)F)c(-c2cc(N3CCOCC3)nc(N3CCOCC3)n2)cn1 [Buparlisib/NVP-BKM120] (max 10 µM),0.662,0.323,0.308,0.298,0.243,0.503,0.357,0.245,0.229,0.279,0.338,0.806,0.371,,,,,,
COc1cc2nccc(Oc3ccc(NC(=O)C4(C(=O)Nc5ccc(F)cc5)CC4)cc3)c2cc1OC [Cabozantinib] (max 10 µM),-0.0067,-0.0111,0.0651,0.0157,0.0866,0.107,0.0415,0.0204,0.0362,0.0356,0.249,-0.092,0.174,,,,,,
COc1cc2c(Oc3ccc4[nH]c(C)cc4c3F)ncnc2cc1OCCCN1CCCC1 [Cediranib/AZD2171] (max 10 µM),-0.0924,0.0327,0.223,-0.0292,-0.0207,0.0756,0.165,0.0493,0.255,0.0369,0.379,0.342,0.0237,,,,,,
Cc1cc(Nc2ncc(Cl)c(Nc3ccccc3S(=O)(=O)C(C)C)n2)c(OC(C)C)cc1C1CCNCC1 [Ceritinib/LDK378] (max 10 µM),0.0682,0.0971,0.215,0.124,0.286,0.457,0.405,0.199,0.503,0.0779,0.0274,0.085,0.0423,,,,,,
N.N.[Cl][Pt][Cl] [Cisplatin] (max 10 µM),,,0.386,,0.297,0.0631,0.287,0.155,0.201,,,,,,,,,,
Cc1nc(Nc2ncc(C(=O)Nc3c(C)cccc3Cl)s2)cc(N2CCN(CCO)CC2)n1 [Dasatinib] (max 10 µM),0.155,0.685,0.598,0.483,0.415,0.483,0.143,0.714,0.376,0.529,0.451,1.15,0.426,,,,,,
COc1cccc2c1C(=O)c1c(O)c3c(c(O)c1C2=O)C[C@@](O)(C(=O)CO)C[C@@H]3O[C@H]1C[C@H](N)[C@H](O)[C@H](C)O1 [Doxorubicin] (max 3.162 µM),0.604,0.448,0.637,0.492,0.836,0.636,0.912,0.754,0.969,0.453,0.321,1.18,0.552,,,,,,
CO[C@H]1C[C@@H]2CC[C@@H](C)[C@@](O)(O2)C(=O)C(=O)N2CCCC[C@H]2C(=O)O[C@H]([C@H](C)C[C@@H]2CC[C@@H](OCCO)[C@H](OC)C2)CC(=O)[C@H](C)/C=C(\C)[C@@H](O)[C@@H](OC)C(=O)[C@H](C)C[C@H](C)/C=C/C=C/C=C/1C [Everolimus] (max 10 µM),0.553,0.731,0.555,0.349,0.371,0.564,0.429,0.307,-0.0896,0.226,0.408,0.984,0.598,,,,,,
CC[C@@]1(O)C(=O)OCc2c1cc1n(c2=O)Cc2cc3c(CN(C)C)c(O)ccc3nc2-1 [Topotecan] (max 10 µM),,,1.08,,0.873,0.854,1.07,0.867,1.02,,,,,,,,,,
